# Data: patent publication US20210190775A1, “COMPOSITIONS AND METHODS FOR TAGGING AND DETECTING NUCLEIC ACIDS” (Nanoco Technologies Ltd., priority 2019, published 2021)
# How the values were obtained:
# [1] = tested on: DNA threads mounted on a glass slide; experiment: Detection of DNA mounted on a glass slide by fluorescence microscopy; format: binding; conditions: DNA 0.3 μg/mL, final dye concentration 0.4 mg/mL, 50× objective, DAPI filter cube
# Description: The DNA binding and enhanced detection ability were also observed using trace amounts of DNA mounted on a glass slide. In this experiment, a DNA solution was prepared in DI water at 0.3 μg/mL and was mixed with the QD-fluorescent dye conjugate nanoparticles (Ex. 1) or with the Hoechst 33342 only (control experiment) at a final dye concentration of 0.4 mg/mL. A 3 μL solution of each composition was mounted on a slide, smeared and let to dry. The slide was then observed under a fluorescence microscope (Olympus BX51) using 50× objective and a DAPI filter cube (UMWU2) and equipped with an Osram HBO50W/AC L1 Short arc mercury lamp as an excitation source. […] All the images were taken using the same microscopy settings. FIG. 6 indicates an enhanced ability to detect DNA on a glass slide (zoomed in to show DNA strands covered with Hoechst-QDs).
# [2] = tested on: A431 human squamous cell carcinoma; experiment: Labelling of nuclear and cytoplasmic DNA or RNA in live cells; format: cell-based; conditions: conjugate 50 μg/mL or Hoechst 33342 0.2 μg/mL, 15h
smiles,measurement,setting,value
"CCOc1ccc(-c2nc3cc(-c4nc5cc(N6CCN(C)CC6)ccc5[nH]4)ccc3[nH]2)cc1.Cl.Cl.Cl [Hoechst 33342, 2′-(4-ethoxyphenyl)-5-(4-methyl-1-piperazinyl)-2,5′-bi-1H-benzimidazole trihydrochloride]",detection of DNA threads on glass slide,[1],almost no signal was observed
same,labelling of cells (fluorescence microscopy),[2],the nuclei were stained but without the ability to detect cell-cell communication
